Measured values published in patent publication US8497382B2, “Carboxylic acid derivative containing thiazole ring and pharmaceutical use thereof” (Mitsubishi Tanabe Pharma Corporation, priority 2008, dated 2013).
pEC50: −log10 of the molar value.

Legend:
[1] = molecular target: T1, Human Peroxisome Proliferator-Activated Receptor (PPAR)α (Homo sapiens, UniProt Q07869); experiment: Transactivation test for human PPARα (GAL4-hPPARαLBD luciferase reporter in CV-1 cells); assay type: cell-based; conditions: for pEC50: CV-1 cells, GAL4-hPPARαLBD, luciferase activity after 24 hr, read-out: transactivation action (EC50, nmol/l)
T1 construct: expressed in transfected cells
T1 sequence (Q07869 239-466 limits assumed): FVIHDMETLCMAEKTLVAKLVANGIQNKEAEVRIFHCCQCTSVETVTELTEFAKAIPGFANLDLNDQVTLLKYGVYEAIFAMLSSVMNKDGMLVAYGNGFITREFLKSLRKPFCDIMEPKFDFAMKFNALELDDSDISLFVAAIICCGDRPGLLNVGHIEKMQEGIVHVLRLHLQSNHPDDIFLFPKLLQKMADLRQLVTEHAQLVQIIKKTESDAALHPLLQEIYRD
Excerpt: Transactivation Test for Human Peroxisome Proliferator-Activated Receptor (PPAR)α
CV-1 cells (CCL-70, manufactured by Dainippon Pharma Co., Ltd.) cultured in Dulbecco's Modified Eagle Medium (DMEM) containing 10% fetal bovine serum (FBS) were transfected, using Lipofectamine 2000 (manufactured by Invitrogen), with pBIND vector (manufactured by Promega) that expresses a fusion protein of a DNA binding region of a yeast transcription factor (GAL4) and a human PPARα ligand binding region (GAL4-hPPARαLBD, manufactured based on Diabetes 47: 1841-1847, 1998), and an internal standard renilla luciferase, and GAL4 responsive TK vector that expresses reporter firefly luciferase (manufactured by Promega). 24 hr later, the medium was changed to a serum free medium containing a test compound, and the luciferase activity after 24 hr was measured.

normal rats = experiment: Blood triglyceride (TG)-lowering action in normal rats; assay type: in vivo; conditions: normal male SD rats; for TG lowering rate: p.o., once a day for 4 days, non-fasting; for TG-lowering action: 0.01 mg/kg
Description: 1) Blood Triglyceride (TG)-Lowering Action in Normal Rats
7 to 9-week-old male SD rats (manufactured by SEAC Yoshitomi, Ltd.) were used for the test. A test compound and a control compound (GW-9578: J. Med. Chem. 1999, 42, 3785-3788) were dissolved or suspended in 1% ethanol, 0.05% Tween80 (final concentration), and 0.5% hydroxypropylmethyl cellulose (HPMC) was added to adjust to a given concentration. The prepared solution was orally administered once a day for 4 days. After administration for 4 days, blood samples were collected from the jugular vein under non-fasting condition and blood TG was measured by an enzyme method. The lowering rate was calculated by determining the rate of a value obtained by subtracting the average blood TG of a drug administration group from the average blood TG of a vehicle administration group, to the average blood TG of the vehicle administration group.

[2] = system: high cholesterol diet-treated rat; experiment: Influence on serum lipid of high cholesterol diet-treated rat; assay type: in vivo, SD rats; conditions: once a day for 5 days, high cholesterol diet rats
Description: 2) Influence on Serum Lipid of High Cholesterol Diet-Treated Rat
8-week-old male SD rats (manufactured by SEAC Yoshitomi, Ltd.) were raised on a standard diet CE-2 (manufactured by Japan Clea, Inc.) added with 1% cholesterol, 2% olive oil and 0.2% cholic acid, from one week before test compound administration to the last day of the administration. A test compound and a control compound (GW-9578) were dissolved or suspended in 1% ethanol and 0.05% Tween80 (final concentration), and 0.5% hydroxypropylmethyl cellulose (HPMC) was added to adjust to a given concentration. The prepared solution was orally administered once a day for 5 days. After administration for 5 days, blood samples were collected from the jugular vein under non-fasting condition and blood lipid was measured by an enzyme method. The lowering rate was calculated by determining the rate of a value obtained by subtracting the average blood TG (or average blood TC) of a drug administration group from the average blood triglyceride (TG) (or average blood total cholesterol (TC)) of a vehicle administration group, to the average blood TG (or average blood TC) of the vehicle administration group.

[3] = Metabolizing isoform identification test (oxidative metabolism by microsome), human liver microsome; assay type: in vitro ADME; conditions: for oxidative metabolism by human liver microsome: 14C-labeled test compound 2 μmol/L, 0.5 mg protein/mL, 37° C., 20 min
Description: (§1) Metabolizing Isoform Identification Test (Oxidative Metabolism by Microsome)
(§2) As a reaction mixture for the CYP isoform identification, a reaction mixture containing microsome [^14C-labeled test compound (2 μmol/L), microsome (human liver microsome at 0.5 mg protein/mL or microsome expressing CYP at 50 pmol CYP/mL (Control microsome, CYP1A2, CYP2A6, CYP2B6, CYP2C8, CYP2C9, CYP2C19, CYP2D6, CYP2E1 or CYP3A4)), EDTA (0.05 mmol/L) and Na—K phosphate buffer (pH 7.4, 0.1 mol/L)] was prepared and, after preincubation at 37° C. for 5 min, a solution of the NADPH generating system [β-NADP+ (0.5 mmol/L), glucose-6-phosphate (G-6-P) (5.0 mmol/L), magnesium chloride (5.0 mmol/L) and G-6-P DH (1.0 unit/mL)] was added to start the reaction. For CYP expressing microsomes for CYP2A6 and CYP2C9, Tris-HCl buffer (pH 7.4, 0.1 mol/L) was used instead of Na—K phosphate buffer (pH 7.4, 0.1 mol/L).
(§3) These reaction mixtures were incubated at 37° C. for 20 min, and a 3-fold amount of ethanol was added to the reaction mixtures to terminate the reaction. To the reaction mixture was added a predetermined amount of an unlabeled metabolite mixed solution, and the mixture was stirred (about 5 min), centrifuged (4° C., 3000 rpm, 10 min) and the supernatant was collected. To the residue was added a 3-fold amount of ethanol relative to the reaction mixture, and the mixture was stirred (about 5 min), and centrifuged (4° C., 3000 rpm, 10 min). The supernatant was collected and combined with the supernatant collected earlier, and the solvent was evaporated under a nitrogen stream at about 40° C. To the residue was added a predetermined amount of HPLC mobile phase or suitable solvent, and the mixture was stirred and used as an HPLC sample. The sample was injected into HPLC and a radiochromatogram was obtained. From the obtained radiochromatogram, the metabolism activity and metabolite generating activity of the ^14C-labeled test compound was calculated.

CYP2C9 [4] = molecular target: T2, CYP2C9 (Homo sapiens, UniProt P11712); experiment: Metabolizing isoform identification test, microsome expressing CYP2C9; assay type: in vitro ADME; conditions: microsome expressing CYP at 50 pmol CYP/mL, 2 μmol/L, 37° C., 20 min
T2 sequence (P11712 whole entry, canonical isoform): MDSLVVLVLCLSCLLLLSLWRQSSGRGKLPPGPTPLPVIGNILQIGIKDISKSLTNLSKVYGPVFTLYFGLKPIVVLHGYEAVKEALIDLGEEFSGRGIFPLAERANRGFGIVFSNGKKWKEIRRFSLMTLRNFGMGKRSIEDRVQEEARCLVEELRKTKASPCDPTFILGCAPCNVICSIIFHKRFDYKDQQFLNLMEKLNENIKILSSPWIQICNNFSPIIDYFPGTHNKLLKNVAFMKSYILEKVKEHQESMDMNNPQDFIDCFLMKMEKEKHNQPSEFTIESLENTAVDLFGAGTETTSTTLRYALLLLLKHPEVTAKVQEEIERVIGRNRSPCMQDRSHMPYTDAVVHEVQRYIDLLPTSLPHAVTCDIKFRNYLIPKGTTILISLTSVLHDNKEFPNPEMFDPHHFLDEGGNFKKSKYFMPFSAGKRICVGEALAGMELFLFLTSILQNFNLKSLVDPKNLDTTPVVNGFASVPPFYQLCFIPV
Description: as §1, §2
(§4) These reaction mixtures were incubated at 37° C. for 20 min, and a 3-fold amount of ethanol was added to the reaction mixtures to terminate the reaction. To the reaction mixture was added a predetermined amount of an unlabeled metabolite mixed solution, and the mixture was stirred (about 5 min), centrifuged (4° C., 3000 rpm, 10 min) and the supernatant was collected. […] From the obtained radiochromatogram, the metabolism activity and metabolite generating activity of the ^14C-labeled test compound was calculated.

CYP3A4 = CYP3A4 (Homo sapiens, UniProt P08684); experiment: Metabolizing isoform identification test, microsome expressing CYP3A4; assay type: in vitro ADME; conditions: microsome expressing CYP at 50 pmol CYP/mL, 2 μmol/L, 37° C., 20 min
CYP3A4, sequence (P08684 whole entry, canonical isoform): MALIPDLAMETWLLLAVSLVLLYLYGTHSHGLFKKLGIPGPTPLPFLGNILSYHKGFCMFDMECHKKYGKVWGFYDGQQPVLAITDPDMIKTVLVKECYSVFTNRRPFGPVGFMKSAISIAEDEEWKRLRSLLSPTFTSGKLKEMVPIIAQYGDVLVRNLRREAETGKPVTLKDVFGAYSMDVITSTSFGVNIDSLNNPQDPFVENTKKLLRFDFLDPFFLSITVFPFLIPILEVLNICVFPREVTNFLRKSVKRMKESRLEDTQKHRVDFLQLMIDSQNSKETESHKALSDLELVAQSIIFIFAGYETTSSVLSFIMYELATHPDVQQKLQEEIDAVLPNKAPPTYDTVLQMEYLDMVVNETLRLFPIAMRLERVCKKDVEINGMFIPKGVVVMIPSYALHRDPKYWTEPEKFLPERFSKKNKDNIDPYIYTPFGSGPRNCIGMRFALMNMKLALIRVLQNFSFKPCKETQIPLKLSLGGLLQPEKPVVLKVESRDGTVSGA
Description: as §1, §2, §4

CYP2C8 = molecular target: T3, CYP2C8 (Homo sapiens, UniProt P10632); experiment: Metabolizing isoform identification test, microsome expressing CYP2C8; assay type: in vitro ADME; conditions: microsome expressing CYP at 50 pmol CYP/mL, 2 μmol/L, 37° C., 20 min
T3 sequence (P10632 1-490): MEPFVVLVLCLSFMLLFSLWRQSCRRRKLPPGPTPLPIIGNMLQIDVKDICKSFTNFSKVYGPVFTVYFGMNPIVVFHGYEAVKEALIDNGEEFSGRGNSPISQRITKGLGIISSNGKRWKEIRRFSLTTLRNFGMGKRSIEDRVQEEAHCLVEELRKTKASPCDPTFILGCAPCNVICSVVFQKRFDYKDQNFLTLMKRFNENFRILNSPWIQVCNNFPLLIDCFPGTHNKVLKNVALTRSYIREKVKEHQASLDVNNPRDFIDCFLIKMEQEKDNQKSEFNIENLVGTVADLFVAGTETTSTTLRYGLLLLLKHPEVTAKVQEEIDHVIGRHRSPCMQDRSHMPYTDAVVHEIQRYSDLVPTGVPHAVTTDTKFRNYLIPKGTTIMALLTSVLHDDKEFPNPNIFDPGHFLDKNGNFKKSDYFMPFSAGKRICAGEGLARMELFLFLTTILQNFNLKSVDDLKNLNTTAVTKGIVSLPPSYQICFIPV
Description: as §1, §2, §4

CYP2C19 = CYP2C19 (Homo sapiens, UniProt P33261); experiment: Metabolizing isoform identification test, microsome expressing CYP2C19; assay type: in vitro ADME; conditions: microsome expressing CYP at 50 pmol CYP/mL, 2 μmol/L, 37° C., 20 min
CYP2C19, sequence (P33261 whole entry, canonical isoform): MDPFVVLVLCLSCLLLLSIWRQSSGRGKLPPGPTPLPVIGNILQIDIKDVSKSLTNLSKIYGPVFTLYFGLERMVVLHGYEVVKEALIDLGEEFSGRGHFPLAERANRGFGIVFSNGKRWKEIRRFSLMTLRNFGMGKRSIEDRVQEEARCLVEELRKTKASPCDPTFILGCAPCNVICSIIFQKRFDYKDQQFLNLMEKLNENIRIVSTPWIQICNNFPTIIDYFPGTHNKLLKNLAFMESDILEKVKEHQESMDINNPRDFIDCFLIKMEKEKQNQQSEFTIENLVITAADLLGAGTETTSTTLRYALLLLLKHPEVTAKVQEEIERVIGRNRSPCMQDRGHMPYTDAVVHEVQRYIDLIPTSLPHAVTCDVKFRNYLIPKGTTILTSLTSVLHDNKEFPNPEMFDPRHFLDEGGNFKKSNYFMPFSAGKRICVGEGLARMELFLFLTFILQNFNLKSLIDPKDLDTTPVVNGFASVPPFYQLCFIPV
Description: as §1, §2, §4

CYP2C9 [5] = molecular target: T2, CYP2C9; experiment: Investigation using an inhibitor (Sulfaphenazole) in human liver microsome; assay type: in vitro ADME; design: human liver microsome (0.5 mg protein/mL); from tissue; host or cells: human liver microsome; conditions: Sulfaphenazole 10 μmol/L, test compound 0.2 and 2 μmol/L
Description: On the other hand, as a reaction mixture for studying inhibitors, [^14C-labeled test compound (0.2 μmol/L and 2 μmol/L), inhibitor solution (Sulfaphenazole) (10 μmol/L), human liver microsome (0.5 mg protein/mL), EDTA (0.05 mmol/L) and Na—K phosphate buffer (pH 7.4, 0.1 mol/L)] was prepared and, after preincubation at 37° C. for 5 min, a solution of the NADPH generating system was added thereto to start the reaction.
as §3, with “To the residue was added a predetermined amount of HPLC mobile phase or suitable solvent, and the mixture was stirred and used as an HPLC sample. The sample was injected into HPLC and a radiochromatogram was obtained.” left out

Compound | pEC50 [1] | TG lowering rate (normal rats; 0.3 mg/kg) | TG lowering rate (%, 0.3 mg/kg, p.o.) TG ([2]; first column) | TG lowering rate (%, 0.3 mg/kg, p.o.) TG ([2]; second column) | TG-lowering action (normal rats) [%] | oxidative metabolism by human liver microsome [3] | other results
CC(C)(Sc1nc(C(O)COc2ccc(-c3ccc(F)cc3)cc2)cs1)C(=O)O (stereo not shown) [Example 2, 2-[(4-{2-[(4′-fluorobiphenyl-4-yl)oxy]-1-hydroxyethyl}-1,3-thiazol-2-yl)thio]-2-methylpropionic acid] | 8.08 | 56% | 38% | 34% |  |  | 
CC(C)(Sc1nc(C(=O)COc2ccc(-c3ccc(F)cc3)cc2)cs1)C(=O)O [Example 3, 2-[(4-{[(4′-fluorobiphenyl-4-yl)oxy]acetyl}-1,3-thiazol-2-yl)thio]-2-methylpropionic acid] | 8.33 |  |  |  |  |  | 
CC(C)(Sc1nc([C@H](O)COc2ccc(-c3ccc(F)cc3)cc2)cs1)C(=O)O [Example 12, 2-[(4-{(1S)-2-[(4′-fluorobiphenyl-4-yl)oxy]-1-hydroxyethyl}-1,3-thiazol-2-yl)thio]-2-methylpropionic acid] | 8.51 |  |  |  | 15.1 | could not be confirmed | transcription activation activity relative to compound A (times stronger) ([1]; compared with compound A (10.41 nmol/l)): ≥ 3 times; TG lowering rate (normal rats; 0.1 mg/kg): 52%; involvement in the metabolism by CYP ([3]; summary statement in description): not involved in the metabolism by CYP
CCCCCCCN(CCc1ccc(SC(C)(C)C(=O)O)cc1)C(=O)Nc1ccc(F)cc1F [GW-9578] |  | 50-60% | 30-50% | 30-50% |  |  | 
CC(C)(Sc1nc(CCOc2ccc(-c3ccc(F)cc3)cc2)cs1)C(=O)O [compound A, 2-[(4-{2-[(4′-fluorobiphenyl-4-yl)oxy]ethyl}-1,3-thiazol-2-yl)thio]-2-methylpropionic acid] | 7.98 |  |  |  | 0.7 | observed | metabolism by CYP2C9 (CYP2C9 [4]): mainly metabolized by CYP2C9; metabolism by CYP3A4 (CYP3A4): also metabolized; metabolism by CYP2C8 (CYP2C8): also metabolized; metabolism by CYP2C19 (CYP2C19): also metabolized; enzyme mainly involved in the metabolism (investigation using the inhibitor) (CYP2C9 [5]): CYP2C9
